Assay results reported in article PMC2801429 (Journal of Alzheimer's disease : JAD, 2009).
“Also recorded” adds a separate entry of the source. Marks after values point to notes of the source that are not given here.

Key:
[1] = Plasma pharmacokinetics of GSPE phenolic constituents after intragastric gavage; type: in vivo, Sprague Dawley rats; details: for Increase of total (free plus methylated) C AUC0-8h: rats; for Detection in rat plasma: acute oral administration of GSPE; for AUC(0-8h) / Cmax / Tmax: rat plasma, mean ± SEM
[2] = Brain deposition of GSPE phenolic constituents; type: in vivo, Sprague Dawley rats; details: for Detection in brain tissue: rats; for Concentration in brain tissue: rats administered GSPE for 10 days (dose escalation, last dose 150 mg/kg BW), perfused brain, mean ± SEM
[3] = acute and single dose studies; cited from earlier work
[4] = humans; four week multiple dose administration; cited from earlier work
[5] = single intragastric gavage 50 mg GSE/kg BW
[6] = single intragastric gavage 100 mg GSE/kg BW
[7] = single intragastric gavage 150 mg GSE/kg BW
[8] = 10 day repeated GSPE pretreatment prior to pharmacokinetic dose
[9] = single acute GSPE dose (50, 100 or 150 mg/kg BW)

Compound	Increase of total (free plus methylated) C AUC0-8h ([1]; 50 to 100 mg/kg BW dose) [%]	Increase of total (free plus methylated) C AUC0-8h ([1]; 100 to 150 mg/kg BW dose) [%]	Detection in rat plasma [1]	AUC(0-8h) [1, 5]	Cmax [1, 5]	Tmax [1, 5] [h]	AUC(0-8h) [1, 6]	Cmax [1, 6]	Tmax [1, 6] [h]	AUC(0-8h) [1, 7]	Cmax [1, 7]	Tmax [1, 7] [h]	Detection in brain tissue [2, 8]	Concentration in brain tissue [2] [pg/g]	Detection in brain tissue [2, 9]	Bioavailability [3]	Improvement of bioavailability by multiple dosing [4] [%]
Oc1cc(O)c2c(c1)OC(c1ccc(O)c(O)c1)C(O)C2 (single isomer, unassigned; (+)) [C, (+)-catechin]	78	106	detected	398.5 ± 80.5 ^a ng/mL*h	207.5 ± 34.8 ^a ng/mL	1.7 ± 0.7	606.1 ± 64.6 ^a ng/mL*h	289.9 ± 37.2 ^a ng/mL	1.8 ± 0.2	1168.2 ± 143.6 ^b ng/mL*h	442.4 ± 49.1 ^b ng/mL	1.1 ± 0.2	detectable levels	576.7 ± 227.7	not detectable	< 2 % of oral dose	–
O=C(O[C@@H]1Cc2c(O)cc(O)cc2O[C@@H]1c1cc(O)c(O)c(O)c1)c1cc(O)c(O)c(O)c1 [EGCG, epigallocatechin-gallate]	–	–	–	–	–	–	–	–	–	–	–	–	–	–	–	–	> 60
O=C(O)c1cc(O)c(O)c(O)c1 [GA, Gallic acid]	–	–	–	–	–	–	–	–	–	–	–	–	detectable levels; also recorded: trace levels	–	No detectable amounts	< 2 % of oral dose	–

More lines, main results first:

Increase of total (free plus methylated) C AUC0-8h ([1]; 50 to 100 mg/kg BW dose) [%]	Increase of total (free plus methylated) C AUC0-8h ([1]; 100 to 150 mg/kg BW dose) [%]	Detection in rat plasma [1]	AUC(0-8h) [1, 5]	Cmax [1, 5]	Tmax [1, 5] [h]	AUC(0-8h) [1, 6]	Cmax [1, 6]	Tmax [1, 6] [h]	AUC(0-8h) [1, 7]	Cmax [1, 7]	Tmax [1, 7] [h]	Detection in brain tissue [2, 8]	Concentration in brain tissue [2] [pg/g]	Detection in brain tissue [2, 9]	Compound	Bioavailability [3]	Improvement of bioavailability by multiple dosing [4] [%]
–	–	–	44.1 ± 4.9 ^a ng/mL*h	22.7 ± 3.5 ^a ng/mL	1.0 ± 0.0	184.8 ± 45.3 ^a ng/mL*h	75.5 ± 14.0 ^b ng/mL	1.4 ± 0.2	465.1 ± 45.1 ^b ng/mL*h	129.3 ± 13.2 ^c ng/mL	1.3 ± 0.2	Trace but not quantifiable levels	–	–	COc1cc([C@H]2Oc3cc(O)cc(O)c3C[C@@H]2O)ccc1O [3′-OMeC, 3′-O-methylcatechin]	–	–
–	–	–	60.5 ± 4.1 ^a ng/mL*h	36.8 ± 5.8 ^a ng/mL	1.0 ± 0.0	266.6 ± 61.4 ^b ng/mL*h	105.9 ± 22.0 ^a ng/mL	1.5 ± 0.2	639.5 ± 67.0 ^c ng/mL*h	167.7 ± 19.6 ^a ng/mL	1.3 ± 0.2	Trace but not quantifiable levels	–	–	COc1cc([C@H]2Oc3cc(O)cc(O)c3C[C@H]2O)ccc1O [3′-OMeEC, 3′-O-methylepicatechin]	–	–
–	–	detected	–	–	–	–	–	–	–	–	–	detectable levels	290.7 ± 45.9	not detectable	Oc1cc(O)c2c(c1)O[C@H](c1ccc(O)c(O)c1)[C@H](O)C2 [EC, (−)-epicatechin]	< 2 % of oral dose	–
